Measurements: the NIST ThermoML archive (doi:10.1016/j.jct.2008.02.004)
± gives the expanded uncertainty stated by the source.

Assay: molar enthalpy of vaporization or sublimation
Settings: 298.15 K; Liquid; calvet microcalorimetry
`O=Cc1cccs1` [2-thiophenealdehyde] showed a molar enthalpy of 13.1 ± 0.526 kcal/mol. In the case of `CCc1ccc(C=O)s1` [2-thiophenecarboxaldehyde, 5-ethyl-], the molar enthalpy is reported as 14.9 ± 0.621 kcal/mol. `O=Cc1ccsc1` [3-formylthiophene] gave a molar enthalpy of 12.6 ± 0.574 kcal/mol. In the case of `Cc1ccsc1C=O` [3-methyl-2-thiophenecarboxaldehyde], the molar enthalpy is reported as 13.8 ± 0.621 kcal/mol. With `Cc1ccc(C=O)s1` [5-methyl-2-thiophenecarbaldehyde] the molar enthalpy was 13.4 ± 0.574 kcal/mol.
